Measured values published in patent US11209421B2, “Cytidine deaminase expression level in cancer as a new therapeutic target” (CENTRE NATIONAL DE LA RECHERCHE SCIENTIFIQUE, priority 2016, dated 2021).
Where two headings read alike, the source gives them in different places.

Columns and labels:
IGROV-1 cells = assay: MTT cell viability, IGROV-1; format: cell-based, human; conditions: pretreatment 96 h with 1 μM 5-Aza-dC versus untreated, then gemcitabine 72 hours
Procedure: (§1) Cell viability was carried out with 3-(4,5-dimethyl-2-thiazolyl)-2,5 diphenyl-2H-tetrazolium bromide (MTT-Life Technologies) in 96-well microplates. The functionality of CDA was assessed by plating HCC-1954 and IGROV-1 cells at densities of 2000 and 3000 cells/well, respectively, on the day before pretreatment and at a density of 800 cells/well for control conditions. Cells were then left untreated or subjected to pretreatment with 1 μM 5-Aza-dC for 96 h. The cells were washed twice with PBS buffer, placed in fresh medium and incubated for 72 hours in the presence of various concentrations of gemcitabine, from 0.001 to 1 μM (Sigma Aldrich). The data were normalized to corresponding controls, for each condition.

HCC-1954 cells = assay: MTT cell viability, HCC-1954 (gemcitabine after 5-Aza-dC pretreatment); format: cell-based, human; conditions: pretreatment 96 h with 1 μM 5-Aza-dC versus untreated, then gemcitabine 72 hours
Procedure: as §1

CDA-depleted HeLa cells = assay: Images of CDA-depleted HeLa cells 24 h after Dasatinib treatment; format: cell-based, human; conditions: 24 h after 0.5 or 1 μM
CDA mRNA = assay: RT-qPCR analysis of the induction of CDA expression; format: cell-based, human; conditions: 96 hours, 2.5 μM 5-Aza-dC
Procedure: For evaluation of the induction of CDA expression, RNA was isolated from cell lines continuously treated with 1 or 2.5 μM of 5-Aza-2′-deoxycytidine (5-Aza-dC—Sigma Aldrich) for 96 hours.
The procedure for real-time PCR (RT-qPCR) was as described by Gemble et al. (cf. Reference 19). In brief, total RNA was extracted from PDX tissues and from cell lines with the RNeasy Mini Kit (Qiagen). Reverse transcription was performed on 1 μg of RNA with the GoScript enzyme (Promega). The cDNA obtained was used at a dilution of 1/10 for real-time PCR with the SYBER Green supermix reagent (Biorad) in a Biorad CFX96 machine. Each sample was run in triplicate. Relative expression was determined by the 2^−ΔΔCt method. GAPDH and TBP were used as internal controls.

CDA protein = assay: Western blot analysis of the induction of CDA expression; format: cell-based, human; conditions: HCC-1954 and IGROV-1, 1 μM 5-Aza-dC for 96 h
Procedure: For western blotting, cells were harvested by centrifugation and lysed in 8 M urea, 50 mM Tris-HCl, pH 7.5 and 150 mM β-mercaptoethanol buffer supplemented with protease inhibitor (ThermoScientific). They were then sonicated and heated. Protein concentration was estimated with the BCA kit (Pierce) and the equivalent of 20 μg or protein per cell lysate was run on a 4-12% Bis-Tris pre-cast gel (Life Technologies). The proteins were then transferred to PVDF membranes, which were probed with the appropriate antibody. Protein bands were visualized with a CCD camera (BioRad).

[1] = test system: breast cancer cell lines (MDA-MB-231, HCC-1954, MCF-7, BT-20) and IGROV-1
Procedure: D, Cell viability, as assessed in MTT assays on breast cancer cell lines (MDA-MB-231, HCC-1954, MCF-7, BT-20) and an ovarian cell cancer line (IGROV-1) after 96 h of treatment with 5-Aza-dC. Error bars represent the mean±SD of 3 independent experiments for IGROV-1 and 2 experiments for the other cell lines. […] The dashed lines indicate the 5-Aza-dC concentrations used in this study.
Cell viability was carried out with 3-(4,5-dimethyl-2-thiazolyl)-2,5 diphenyl-2H-tetrazolium bromide (MTT-Life Technologies) in 96-well microplates.

MDA-MB-468 xenograft = conditions: cited from earlier work; for median tumor growth inhibition: compared to control
MDA-MB-231 xenograft = conditions: cited from earlier work
[2] = MDA-MB-231 xenograft mice, 70 mg/kg

With `Nc1ccn([C@@H]2O[C@H](CO)[C@@H](O)C2(F)F)c(=O)n1` [gemcitabine] the “gemcitabine resistance (cell survival, MTT)” value (IGROV-1 cells) was “significant increase in gemcitabine resistance” and the “gemcitabine resistance (cell survival, MTT)” value (HCC-1954 cells) was “significant increase in gemcitabine resistance”.
For `Cc1nc(Nc2ncc(C(=O)Nc3c(C)cccc3Cl)s2)cc(N2CCN(CCO)CC2)n1` [NSC 759877, Dasatinib], the “effect on cell morphology (images)” value (CDA-depleted HeLa cells) was “no effect”.
In the case of `Nc1ncn([C@H]2C[C@H](O)[C@@H](CO)O2)c(=O)n1` [5-Aza-dC, 5-Aza-2′-deoxycytidine], the “induction of CDA mRNA levels” value (CDA mRNA; 7 CDA-deficient cell lines) is reported as “up to 1000 fold”, the “induction of CDA transcript levels” value (CDA mRNA; MDA-MB-231, HOP-92, HCC-1143 and HCC-1937 control cell lines with constitutively high CDA) is reported as “two-fold” and the “induction of CDA protein production” value (CDA protein) is reported as “strongly induced the production of a functional CDA protein”. For the same compound, the “toxicity (cell viability, MTT)” value [1] was “without major toxicity”.
For `Cc1c(F)c(N)c2c(=O)cc(-c3ccc(NC(=O)[C@@H](N)CCCCN)c(F)c3)oc2c1F` [AFP464], the tolerance (MDA-MB-468 xenograft; MDA-MB-468 xenograft mice, 35 and 50 mg/kg) is listed as “well tolerated”, the tumor growth (MDA-MB-468 xenograft; MDA-MB-468 xenograft, 35 or 50 mg/kg i.v., compared to vehicle control) is listed as “statistically significantly delayed tumor growth” and the “median tumor growth inhibition” value (MDA-MB-468 xenograft; MDA-MB-468 xenograft, after one cycle of treatment) is listed as 57%. For the same compound, the “median tumor growth inhibition” value (MDA-MB-468 xenograft; MDA-MB-468 xenograft, after two cycles of treatment) was 54%, the tolerance (MDA-MB-231 xenograft; MDA-MB-231 xenograft mice, 35 mg/kg) was “well tolerated” and the body weight loss (MDA-MB-231 xenograft; [2]) was “up to 15%”. The “death of mice during the course of treatment” value (MDA-MB-231 xenograft; [2]) was 1 of 7 and the “antitumor activity (inhibition)” value (MDA-MB-231 xenograft; MDA-MB-231 xenograft, AFP464 alone, 35 or 70 mg/kg) was 0%.
